Patent US8835380B2, “Therapeutic conjugates” (University College Cardiff Consultants Limited, priority 2010, dated 2014)

Experiments:
[1] = tested on: Klebsiella pneumoniae KP05 506; assay: MIC broth microdilution; assay type: cell-based; details: amylase (100 IU/L) pre-incubation time 0
Description: (§1) Antimicrobial activity was measured using broth microdilution in a minimum inhibitory concentration (MIC) assay according to the Clinical and Laboratory Standards Institute (formerly NCCLS; 2003, Methods for Dilution Antimicrobial Susceptibility Tests for Bacteria That Grow Aerobically, Approved Standard—Sixth Edition. M7A6. Clinical and Laboratory Standards Institute. Wayne, Pa.). Test organisms were suspended in Mueller Hinton cation adjusted broth (100 μL, 1-5×10^4 CFU/mL) and incubated in 96-well microtitre plates in serial two-fold dilutions of the test compounds.
(§2) The antimicrobial activity of dextrin-colistin was also determined following incubation of the conjugate with amylase. Dextrin-colistin conjugates (3 mg/mL colistin eq.) were first incubated with amylase (100 IU/L for up to 48 h at 37° C. in PBS buffer (pH 8.2)).

[2] = tested on: Pseudomonas aeruginosa R22 PSA; assay: MIC broth microdilution; assay type: cell-based; details: amylase (100 IU/L) pre-incubation time 0
Description: as §1, §2

[3] = tested on: Acinetobacter baumannii 7789; assay: MIC broth microdilution; assay type: cell-based; details: amylase (100 IU/L) pre-incubation time 0
Description: as §1, §2

[4] = tested on: Klebsiella pneumoniae K3; assay: MIC broth microdilution; assay type: cell-based; details: amylase (100 IU/L) pre-incubation time 0
Description: as §1, §2

[5] = tested on: Acinetobacter haemolyticus 1554; assay: MIC broth microdilution; assay type: cell-based; details: amylase (100 IU/L) pre-incubation time 0
Description: as §1, §2

[6] = tested on: Acinetobacter baumannii MDR ACB; assay: MIC broth microdilution; assay type: cell-based; details: amylase (100 IU/L) pre-incubation time 0
Description: as §1, §2

[7] = tested on: Providencia stuartii IR57; assay: MIC broth microdilution; assay type: cell-based; details: amylase (100 IU/L) pre-incubation time 0
Description: as §1, §2

[8] = tested on: Acinetobacter baumannii; assay: MIC broth microdilution; assay type: cell-based; details: amylase (100 IU/L) pre-incubation time 0
Description: as §1, §2

[9] = tested on: Pseudomonas aeruginosa PA01; assay: MIC broth microdilution; assay type: cell-based; details: amylase (100 IU/L) pre-incubation time 0
Description: as §1, §2

[10] = tested on: Klebsiella pneumoniae 5725; assay: MIC broth microdilution; assay type: cell-based; details: amylase (100 IU/L) pre-incubation time 0
Description: as §1, §2

[11] = tested on: Klebsiella pneumoniae IR25; assay: MIC broth microdilution; assay type: cell-based; details: amylase (100 IU/L) pre-incubation time 0
Description: as §1, §2

[12] = tested on: Pseudomonas aeruginosa MDR 301 PSA; assay: MIC broth microdilution; assay type: cell-based; details: amylase (100 IU/L) pre-incubation time 0
Description: as §1, §2

[13] = tested on: Acinetobacter lwoffi; assay: MIC broth microdilution; assay type: cell-based; details: amylase (100 IU/L) pre-incubation time 0
Description: as §1, §2

[14] = tested on: Escherichia coli 5702; assay: MIC broth microdilution; assay type: cell-based; details: amylase (100 IU/L) pre-incubation time 0
Description: as §1, §2

[15] = tested on: Escherichia coli 7273; assay: MIC broth microdilution; assay type: cell-based; details: amylase (100 IU/L) pre-incubation time 0
Description: as §1, §2

[16] = tested on: Acinetobacter lwoffi 6056; assay: MIC broth microdilution; assay type: cell-based; details: amylase (100 IU/L) pre-incubation time 0
Description: as §1, §2

[17] = tested on: Escherichia coli AIM-1; assay: MIC broth microdilution; assay type: cell-based; details: amylase (100 IU/L) pre-incubation time 0
Description: as §1, §2

[18] = tested on: LPS from E. coli; assay: LAL assay (endotoxin neutralisation); assay type: biochemical; details: 4 μg/mL
Description: A colorimetric assay technique was used in which the clotting reaction of Limulus amoebocyte lysate (LAL) in the presence of LPS was measured spectrophotometrically at 540 nm.
LPS was dissolved in pyrogen free water (0-50 ng/mL) containing colistin, CMS, dextrin-colistin or unmasked dextrin-colistin (4 μg/mL, 100 μL) in pyrogen-free vials. Control samples contained only LPS dissolved in pyrogen-free water. Solutions were mixed well and incubated at 37° C. for 3 h. Reconstituted LAL (100 μL) was then added and the solution mixed well before incubation at 37° C. for 45 min. Next, reconstituted substrate solution (100 μL) was added to each vial, mixed well and incubated for a further 6 min. Finally, the reaction was terminated by addition of reconstituted stop solution and colour stabilisers. Samples (100 μL) were pipetted into the wells of a 96-well microtitre plate (6 wells per sample) and absorption was read spectrophotometrically at 540 nm. The concentration of LPS producing 50% maximal absorption was taken as the ED50.
To study the effect of amylase on the activity of dextrin-colistin conjugates, dextrin-colistin conjugates (0.5 mg/mL) were first incubated with amylase (100 IU/L) for 6 and 24 h at 37° C. in PBS (pH 8.2). The endotoxin binding activity assays were then followed as described above.

[19] = tested on: Pseudomonas aeruginosa mucoid strain; assay: MIC broth microdilution (first mucoid strain, Table 3 r46); assay type: cell-based; details: amylase (100 IU/L) pre-incubation time 0
Description: as §1, §2

[20] = tested on: Pseudomonas aeruginosa mucoid strain; assay: MIC broth microdilution (second mucoid strain, Table 3 r49); assay type: cell-based; details: amylase (100 IU/L) pre-incubation time 0
Description: as §1, §2

[21] = tested on: HK2 kidney cells; assay: MTT assay, cell viability; assay type: cell-based, human; details: 72 h incubation
Description: The MTT assay was used to assess cell viability (72 h incubation) in a human kidney (HK2) cell line. Cells were seeded into sterile 96-well microtitre plates (1×10^5 cells/mL) in 0.1 mL/well of media (DMEM) containing FCS (10% v/v). They were allowed to adhere for 24 h. The medium was then removed and test compounds (0.2 μm filter-sterilized) were added to the cells. To study the effect of colistin, CMS, dextrin-colistin conjugate and succinoylated dextrin (8,000 g/mol, 1.1 mol % succinoylation) on cell viability, complete media (+FCS) was supplemented with a range of concentrations of each. To study the effect of ‘unmasked’ dextrin-colistin on cell viability, complete media (+FCS) was supplemented with a range of concentrations of conjugate and amylase (100 IU/L). After a further 67 h incubation, MTT (20 μL of a 5 mg/mL solution in PBS) was added to each well and the cells were incubated for a further 5 h. The medium was then removed and the precipitated formazan crystals solubilized by addition of optical grade DMSO (100 μL) over 30 min. Absorbance was measured at 540 nm using a microtitre plate reader. Cell viability was expressed as a percentage of the viability of untreated control cells. The IC50 values were expressed as mean±SEM (n=18).

[22] = target: T1, human amylase (Homo sapiens, UniProt P0DUB6); assay: Release of colistin from dextrin-colistin conjugates by amylase (FPLC); assay type: in vitro ADME; details: amylase 100 IU/L in PBS, 37° C., CMS: hydrolysis in PBS
T1 construct: α-amylase from human saliva; purchased Sigma-Aldrich (Poole, UK); host or cells: human saliva (natural source)
Description: To compare the rate of amylase degradation of dextrin, succinoylated dextrin and dextrin-colistin conjugates, solutions (3 mg/mL in PBS, pH 7.4) of each sample was prepared containing amylase (100 IU/L in PBS) and incubated at 37° C. for up to 48 h. At various time points, samples (300 μL) were taken, immediately snap frozen in liquid nitrogen to stop the reaction and then stored at −20° C. until analysis by GPC and FPLC (conjugates only). Prior to analysis, samples were placed in a water bath (100° C.) for 5 min to denature the enzyme activity of the amylase and stop polymer degradation. The supernatant was then analysed by GPC to determine the change in molecular weight over time and by FPLC to determine the change in free colistin over time.

T1 sequence (P0DUB6 16-511): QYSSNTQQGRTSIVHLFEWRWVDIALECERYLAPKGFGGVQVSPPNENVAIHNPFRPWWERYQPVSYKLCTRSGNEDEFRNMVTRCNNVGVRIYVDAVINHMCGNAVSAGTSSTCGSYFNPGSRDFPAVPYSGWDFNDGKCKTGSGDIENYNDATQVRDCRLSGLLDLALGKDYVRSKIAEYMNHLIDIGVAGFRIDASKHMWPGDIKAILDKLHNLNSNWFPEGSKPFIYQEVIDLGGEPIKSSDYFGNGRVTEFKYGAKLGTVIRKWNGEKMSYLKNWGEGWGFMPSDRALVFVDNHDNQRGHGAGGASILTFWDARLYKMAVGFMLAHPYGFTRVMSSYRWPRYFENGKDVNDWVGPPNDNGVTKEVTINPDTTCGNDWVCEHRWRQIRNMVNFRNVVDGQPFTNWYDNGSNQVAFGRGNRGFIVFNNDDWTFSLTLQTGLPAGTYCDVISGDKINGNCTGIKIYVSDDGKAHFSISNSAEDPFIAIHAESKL

Substance	MIC [1]	MIC [2]	MIC [3]	MIC [4]	MIC [5]	MIC [6]	MIC [7]	MIC [8]	MIC [9]	MIC [10]	MIC [11]	MIC [12]	MIC [13]	MIC [14]	MIC [15]	MIC [16]	MIC [17]	MIC [19]	MIC [20]	IC50 (cell viability) [21] [µg/mL]	further results
colistin	0.125	0.03	0.03	0.06	4	0.125	0.01	0.03	0.06	0.03	0.03	0.125	0.25	0.03	<0.5	0.03	0.01	0.01	0.008	20	inhibition of cleavage of chromogenic substrate by E. coli LPS [18]: able to inhibit; LPS required to trigger Limulus amoebocyte lysate gelation compared to LPS in water ([18]; preincubated 3 h at 37° C.): 20 fold; % colistin release after 24 h [22]: 100%
colistin methanesulfonate [CMS]	2	0.5	2	2	8	4	1	4	1	1	2	1	4	1	2	2	0.25	1	0.25	25	% colistin release after 24 h [22]: 23.6%
